Values after ≈ are worked out from the molar mass of the structure shown. Like-named read-outs stand apart in the source and are kept apart here.
Key:
[1] = target: T1, MK2 enzyme (Homo sapiens, UniProt P49137); experiment: MK2 enzyme activity, IMAP fluorescence polarization assay; assay type: biochemical
T1 construct: MK2 enzyme (active enzyme (peptide 46-end (Millipore))); purchased Millipore
Method in brief: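 Enzyme kept in KR buffer (10 mM Tris-HCl, 10 mM MgCl2, 0.01% Tween-20, 2 mM DTT, pH 7.2) and acting on a fluorescein-labeled peptide substrate; final compound range 10 μM to 0.316 nM. After 60 min at room temperature, FP at 535 nm was read. Signal as percent of the with/without-ATP control difference, and EC50 by curve fit.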

[2] = Solubility determination of MK2 inhibitors (kinetic aqueous solubility, UPLC); assay type: physicochemical; conditions: aqueous buffer (system solution from pION inc.), 22 °C, pH 7.4, aqueous buffer, kinetic from dmso stock
Method in brief: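 Kinetic shake-flask solubility (mg/L) at pH 7.4, room temperature (21-23° C.), 1% final DMSO from 10 mM DMSO stock, duplicates. Shaken 24 h, filtered (0.45 um), 1-propanol added to filtrate; dissolved compound quantified by UPLC-UV against external DMSO calibration line of the same compound.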

[3] = Table 2, compound of Formula (I) with amine-containing spiro ring, pH 7.4, read-out: Solubility pH 7.4 (mg/L), Formula (I)
[4] = Table 2, compound of Formula (I) with amine-containing spiro ring, MK2 IMAP assay, read-out: pEC50, Formula (I) (converted)
[5] = MK2 IMAP assay, 1 μM ATP, 30 min pre-incubation, 2 h room temperature, read-out: pEC50 value (converted)
[6] = pH 7.4, room temperature, about 1% DMSO, 24 h shaking, read-out: solubility

T1 sequence (P49137 46-400 limits assumed): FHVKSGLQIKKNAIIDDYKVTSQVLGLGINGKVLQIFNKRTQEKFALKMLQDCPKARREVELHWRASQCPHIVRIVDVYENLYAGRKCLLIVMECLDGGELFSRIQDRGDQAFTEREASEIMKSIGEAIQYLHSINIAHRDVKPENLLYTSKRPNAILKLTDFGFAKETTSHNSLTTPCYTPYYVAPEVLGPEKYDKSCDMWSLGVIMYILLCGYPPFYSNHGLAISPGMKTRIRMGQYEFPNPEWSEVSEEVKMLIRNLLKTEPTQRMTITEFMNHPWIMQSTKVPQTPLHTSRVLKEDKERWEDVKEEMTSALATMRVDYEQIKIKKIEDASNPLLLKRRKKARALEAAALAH

SMILES | EC50 [1, 5] [nM] | solubility at 24 h [2, 6] [mg/L] | further results
O=C1NCC2(CCNCC2)c2[nH]c(-c3ccnc(-c4cnc5ccccc5c4)n3)cc21 [17_2 Formula (I)] | – | – | pEC50, Formula (I) ([1]; Table 2, compound of Formula (I) with amine-containing spiro ring, MK2 IMAP assay): 8.2; solubility at 24 h [2, 3]: 23 mg/L
O=C1NCC2(CCOCC2)c2[nH]c(-c3ccnc(-c4cnc5ccccc5c4)n3)cc21 [17_2 Formula (XVI)] | – | – | EC50 ([1]; Table 2, comparison compound of Formula (XVI), spiro ring without amine, MK2 IMAP assay, read-out: pEC50, Formula (XVI) (converted)): 316 nM; solubility at 24 h ([2]; Table 2, comparison compound of Formula (XVI), spiro ring without amine, pH 7.4, read-out: Solubility pH 7.4 (mg/L), Formula (XVI)): 3 mg/L
O=C1NCC2(CCNC2)c2[nH]c(-c3ccnc(-c4cnc5ccccc5c4)n3)cc21 (centres unmarked) [17_3 Formula (I)] | – | – | EC50 [1, 4]: 2.51 nM; solubility at 24 h [2, 3]: 37 mg/L
O=C1NCC2(CCNC2)c2[nH]c(-c3ccnc(-c4cccc(F)c4)n3)cc21 (centres unmarked) [17_4 Formula (I)] | – | – | EC50 [1, 4]: 12.6 nM; solubility at 24 h [2, 3]: 48 mg/L
O=C1NCC2(CCNCC2)c2[nH]c(-c3ccnc(-c4cc5ccccc5o4)n3)cc21 [Example 1—1, 2′(2-(benzofuran-2-yl)pyrimidin-4-yl)-5′,6′-dihydrospiro[piperidine-4,7′-pyrrolo[3,2-c]pyridin]-4′(1′H)-one] | 3.16 to 31.6 | 20 to 50 (≈ 50.1 to 125 µM) | –
CN1CCC2(CC1)CNC(=O)c1cc(-c3ccnc(-c4cc5ccccc5o4)n3)[nH]c12 [Example 2—1, 2′-(2-(benzofuran-2-yl)pyrimidin-4-yl)-1-methyl-5′,6′-dihydrospiro[piperidine-4,7′-pyrrolo[3,2-c]pyridin]-4′(1′H)-one] | – | 20 to 50 (≈ 48.4 to 121 µM) | EC50 [1]: 3.16 to 31.6 nM
NCCN1CCC2(CC1)CNC(=O)c1cc(-c3ccnc(-c4cc5ccccc5o4)n3)[nH]c12 [Example 2—3, 1-(2-aminoethyl)-2′-(2-(benzofuran-2-yl)pyrimidin-4-yl)-5′,6′-dihydrospiro[piperidine-4,7′-pyrrolo[3,2-c]pyridin]-4′(1′H)-one] | 31.6 to 316 | ≥ 50 | –
CC(=O)NCCN1CCC2(CC1)CNC(=O)c1cc(-c3ccnc(-c4cc5ccccc5o4)n3)[nH]c12 [Example 3—1, N-(2-(2′-(2-(benzofuran-2-yl)pyrimidin-4-yl)-4′-oxo-1′,4′,5′,6′-tetrahydrospiro[piperidine-4,7′-pyrrolo[3,2-c]pyridine]-1-yl)ethyl)acetamide] | 3.16 to 31.6 | ≥ 50 | –

Now from value to molecule, other results behind:

EC50 [1, 5] [nM] | solubility at 24 h [2, 6] [mg/L] | SMILES | further results
3.16 to 31.6 | ≥ 50 | O=C1NCC2(CCNCC2)c2[nH]c(-c3ccnc(-c4ccc(Cl)c(Cl)c4)n3)cc21 [Example 1—13, 2′-(2-(3,4-dichlorophenyl)pyrimidin-4-yl)-5′,6′-dihydrospiro[piperidine-4,7′-pyrrolo[3,2-c]pyridin]-4′(1′H)-one] | –
3.16 to 31.6 | 20 to 50 (≈ 47.9 to 120 µM) | O=C1NCC2(CCNCC2)c2[nH]c(-c3nc(-c4cc5ccccc5o4)ncc3F)cc21 [Example 4—1, 2′-(2-(benzofuran-2-yl)-5-fluoropyrimidin-4-yl)-5′,6′-dihydrospiro[piperidine-4,7′-pyrrolo[3,2-c]pyridin]-4′(1′H)-one] | –
3.16 to 31.6 | ≥ 50 | O=C1NCC2(CCCNC2)c2[nH]c(-c3ccnc(-c4cc5ccccc5o4)n3)cc21 (centres unmarked) [Example 5—1, 2′-(2-(benzofuran-2-yl)pyrimidin-4-yl)-5′,6′-dihydrospiro[piperidine-3,7′-pyrrolo[3,2-c]pyridin]-4′(1′H)-one] | –
≤ 3.16 | 20 to 50 (≈ 50.4 to 126 µM) | O=C1NCC2(CCNC2)c2[nH]c(-c3ccnc(-c4cnc5ccccc5c4)n3)cc21 (centres unmarked) [Example 6—1, 2′-(2-(quinolin-3-yl)pyrimidin-4-yl)-5′,6′-dihydrospiro[pyrrolidine-3,7′-pyrrolo[3,2-c]pyridin]-4′(1′H)-one] | –
3.16 to 31.6 | ≥ 50 | O=C1NCC2(CCNCC2)c2[nH]c(-c3ccnc(-c4cc5ccccc5o4)c3)cc21 [Example 8—1, 2′-(2-(benzofuran-2-yl)pyridin-4-yl)-5′,6′-dihydrospiro[piperidine-4,7′-pyrrolo[3,2-c]pyridin]-4′(1′H)-one] | –
3.16 to 31.6 | ≥ 50 | O=C1NCC2(CCNCC2)c2[nH]c(-c3ccnc(-c4nc5ccccc5s4)c3)cc21 [Example 9—1, 2′-(2-(benzo[d]thiazol-2-yl)pyridin-4-yl)-5′,6′-dihydrospiro[piperidine-4,7′-pyrrolo[3,2-c]pyridin]-4′(1′H)-one] | –
≤ 3.16 | 20 to 50 (≈ 42.6 to 107 µM) | O=C(Nc1cc(-c2cc3c([nH]2)C2(CCNCC2)CNC3=O)ccn1)c1ccc(C(F)(F)F)cc1 [Example 12—1, N-(4-(4′-oxo-1′,4′,5′,6′-tetrahydrospiro[piperidine-4,7′-pyrrolo[3,2-c]pyridine]-2′-yl)pyridin-2-yl)-4-(trifluoromethyl)benzamide] | –
31.6 to 316 | 20 to 50 (≈ 42.5 to 106 µM) | O=C(Nc1nccc(-c2cc3c([nH]2)C2(CCCNC2)CNC3=O)n1)c1ccc(C(F)(F)F)cc1 (centres unmarked) [Example 13—1, N-(4-(4′-oxo-1′,4′,5′,6′-tetrahydrospiro[piperidine-3,7′-pyrrolo[3,2-c]pyridine]-2′-yl)pyrimidin-2-yl)-4-(trifluoromethyl)benzamide] | –

— patent publication US8772286B2, “MK2 inhibitors” (Merck Sharp & Dohme B.V., priority 2009, dated 2014)
